Values after ≈ are worked out from the molar mass of the structure shown. “Also recorded” adds a separate entry of the source. Like-named read-outs stand apart in the source and are kept apart here.
Tests used:
T. brucei brucei = system: T. brucei brucei; parameters: method as in PMID 20359874; conditions: life stage or form has not been reported; cited from earlier work
[1] = system: Trypanosoma brucei rhodesiense STIB 900; assay: In vitro assay for Trypanosoma brucei rhodesiense (resazurin); assay type: cell-based
Method: Trypanosoma brucei rhodesiense STIB 900 strain, isolated in 1982 from a human patient in Tanzania and, after several mouse passages, cloned and adapted to axenic culture conditions, was used in this assay. Minimum essential medium (50 μL) supplemented with 25 mM HEPES, 1 g/L additional glucose, 1% MEM non-essential amino acids (100×), 0.2 mM 2-mercaptoethanol, 1 mM Na-pyruvate, and 15% heat inactivated horse serum was added to each well of a 96 well microtiter plate. Serial drug dilutions of seven 3-fold dilution steps covering a range from 90 to 0.123 μg/mL were prepared, and then 4 × 10^4 blood stream forms of T. b. rhodesiense STIB 900 in 50 μL were added to each well and the plate was incubated at 37 °C under a 5% CO2 atmosphere for 72 h. Resazurin solution (resazurin, 12.5 mg in 100 mL double-distilled water) (10 μL) was then added to each well and incubated for a further 2–4 h. At the end of the assay, the plates were read with a Spectramax Gemini XS microplate fluorometer (Molecular Devices Cooperation, Sunnyvale, CA, USA) using an excitation wavelength of 536 nm and an emission wavelength of 588 nm. Data were analyzed using the microplate reader software Softmax Pro (Molecular Devices Cooperation, Sunnyvale, CA, USA). Melarsoprol was used as standard drug.

[2] = system: L. infantum promastigotes; parameters: method as in PMID 31151304; conditions: 24 h MTT assay; cited from earlier work
[3] = system: P. falciparium FCR-3 strain; parameters: method as in PMID 23082579; conditions: cited from earlier work
P. falciparum K1 strain = assay: In vitro assay for Plasmodium falciparum ([3H]-hypoxanthine incorporation); assay type: cell-based
Method: Activity against the erythrocytic stages of P. falciparum was determined using an in vitro modified [^3H]-hypoxanthine incorporation assay, using the chloroquine- and pyrimethamine-resistant K1 strain [68]. Compounds were dissolved in DMSO at 10 mg/mL and further diluted in medium before added to parasite cultures incubated in RPMI 1640 medium without hypoxanthine, supplemented with HEPES (5.94 g/l), NaHCO3 (2.1 g/L), neomycin (100 U/mL), AlbumaxR (5 g/L), and washed human red cells A+ at 2.5% haematocrit (0.3% parasitaemia). Serial drug dilutions of seven 3-fold dilution steps covering a range from 90 to 0.123 μg/mL were prepared. The 96 well plates were incubated in a humidified atmosphere at 37 °C; 4% CO2, 3% O2, 93% N2. After 48 h 50 μL of ^3H-hypoxanthine (=0.5 μCi) was added to each well of the plate. The plates were incubated for a further 24 h under the same conditions. The plates were then harvested with a Betaplate™ cell harvester (Wallac, Zurich, Switzerland), and the red blood cells transferred onto a glass fiber filter then washed with distilled water. The dried filters were inserted into a plastic foil with 10 mL of scintillation fluid, and counted in a Betaplate™ liquid scintillation counter (Wallac, Zurich, Switzerland). […] IC50 values were calculated from the sigmoidal inhibition curves using Microsoft Excel. Chloroquine was used as positive control drug.

[4] = system: T. cruzi Tulahuen strain C2C4; assay: In vitro assay for Trypanosoma cruzi in L-6 cells (β-galactosidase/CPRG); assay type: cell-based; conditions: highest concentration tested 90 μg/mL; for IC50: Trypanosoma cruzi, L6, Tulahuen C2C4 in L-6 cells, 96 h, means of two determinations ± deviation
Method: Rat skeletal myoblasts (L-6 cells) were seeded in 96 well microtiter plates (2000 cells/well) in 100 μL RPMI 1640 medium with 10% FBS and 2 mM L-glutamine for 24 h. After that, the medium was removed and replaced by 100 μL per well containing 5000 trypomastigote forms of T. cruzi Tulahuen strain C2C4, containing the β-galactosidase (Lac Z) gene. The medium was removed from the wells after 48 h, and replaced with 100 μL fresh medium with or without a serial drug dilution of seven 3-fold dilution steps covering a range from 90 to 0.123 μg/mL. After 96 h of incubation, the plates were inspected under an inverted microscope to assure growth of the controls and sterility, after which the substrate CPRG/Nonidet ([…]) was added to all wells. A color reaction developed within 2–6 h and could be read photometrically at 540 nm. Data were transferred into the graphic program Softmax Pro (Molecular Devices Cooperation, Sunnyvale, CA, USA) and the IC50 values were calculated from the sigmoidal dose response curves. Benznidazole was the reference drug.

T. brucei brucei STIB795 = assay: In vivo trypanocidal activity, T. brucei brucei STIB795 mouse model; parameters: species or system Trypanosoma brucei brucei; conditions: for in vivo trypanocidal activity in mice (in words): 100 mg/kg i.p.; for Cured/Infected / Mean Survival: 100 mg/kg × 4 days i.p., NMRI mice; for Mean Survival: untreated control 5.25 days
Method: In vivo efficacy studies in mice were conducted at the Swiss Tropical and Public Health Institute (Basel) (License number 2813) according to the rules and regulations for the protection of animal rights (“Tierschutzverordnung”) of the Swiss “Bundesamt für Veterinärwesen”. They were approved by the veterinary office of Canton Basel-Stadt, Switzerland. Groups of four female NMRI mice weighing 20 to 25 g were infected i.p. on Day 0 (d0) with 10^5 bloodstream forms of T. brucei brucei STIB 795, which is a derivative of strain 427. Compounds were formulated in 100% DMSO diluted 10-fold in distilled water. Mice were treated on four consecutive days (d3 to d6 post-infection) with the Origanum onites oil, as well as carvacrol and thymol, at 100 mg/kg by the i.p. route. One group served as untreated controls, and two other groups were treated with the standard drugs pentamidine (5 mg/kg for 4 days) and melarsoprol (2 mg/kg for 4 days), respectively. The levels of parasitemia of the mice were checked by microscopic examination of tail blood on Day 7 and thereafter twice a week until Day 30 post infection. Mice were considered cured when there was no parasitaemia relapse detected in the tail blood over the 30 day observation period. The day of relapse and surviving days were recorded.

Structure (SMILES): Cc1ccc(C(C)C)cc1O [Carvacrol]
- IC50 T. brucei brucei (T. brucei brucei): 11.3 µg/mL (≈ 75.2 µM)
- IC50 ([1]; Trypanosoma brucei; STIB 900 blood stream forms, 72 h; means of two independent determinations ± deviation from the mean; read-out: IC50 Trypanosoma brucei rhodesiense): 0.15 ± 0.04 µg/mL (≈ 0.999 µM)
- selectivity index (IC50 value against L6 mammalian cells/IC50 value against parasite) ([1]; against T. b. rhodesiense): 327.5
- IC50 L. infantum promastigotes [2]: 9.8 µg/mL (≈ 65.2 µM)
- IC50 in vitro antimalarial activity [3]: 10 µg/mL (≈ 66.6 µM)
- IC50 (P. falciparum K1 strain; K1, read-out: IC50 Plasmodium falciparum): 6.4 ± 0.9 µg/mL (≈ 42.6 µM)
- IC50 [4]: > 90 µg/mL
- inhibitory activity against T. cruzi (in words) [4]: inactive
- in vivo trypanocidal activity in mice (in words) (T. brucei brucei STIB795): inactive
- Cured/Infected (T. brucei brucei STIB795): 0/4
- Mean Survival (T. brucei brucei STIB795): 5.25 days

Structure (SMILES): Cc1ccc(C(C)C)c(O)c1 [Thymol]
- IC50 T. brucei brucei (T. brucei brucei): 22.9 µg/mL (≈ 152 µM)
- IC50 ([1]; Trypanosoma brucei, 72 h, STIB 900 blood stream forms, 72 h; means of two independent determinations ± deviation from the mean; read-out: IC50 Trypanosoma brucei rhodesiense): 0.11 ± 0.01 µg/mL (≈ 0.732 µM)
- IC50 L. infantum promastigotes [2]: 7.2 µg/mL (≈ 47.9 µM)
- IC50 in vitro antimalarial activity [3]: 10 µg/mL (≈ 66.6 µM)
- IC50 (P. falciparum K1 strain; K1 strain (chloroquine- and pyrimethamine-resistant), erythrocytic stages, means of two determinations ± deviation, read-out: IC50 Plasmodium falciparum): 5.7 ± 0.03 µg/mL (≈ 37.9 µM)
- IC50 [4]: > 90 µg/mL
- inhibitory activity against T. cruzi (in words) [4]: inactive
- in vivo trypanocidal activity in mice (in words) (T. brucei brucei STIB795): extended the survival time of infected mice; also recorded: had some effect
- Cured/Infected (T. brucei brucei STIB795): 0/4
- Mean Survival (T. brucei brucei STIB795): 9.0 days
- Mean Survival (T. brucei brucei STIB795; listed as thymol): 9 days

Source: paper PMC6930659, “Antiprotozoal Activity of Turkish Origanum onites Essential Oil and Its Components” (Molecules, 2019)
